Drawing on PubChem BioAssay AID330 (DTP/NCI, 2004), this text covers T/C for 23 compounds.

Each structure is given as a SMILES string. Several values for one entry are separate records, joined by “and”; a condition that tells them apart may be missing. Identical values can stand only once. Toxic doses and inconclusive results are not listed.

For this assay, the system named is P388 leukemia ip, CD2F1 mice, survival T/C. The experiment in a line: NCI In Vivo Anticancer Drug Screen. Data for tumor model P388 Leukemia (intraperitoneal) in CD2F1 (CDF1) mice. Particulars: endpoint: median survival time, higher = longer survival. Summed up:
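Mice carrying the transplanted tumor received test compound or vehicle. Survival was recorded in each group, and the value is the treated-group measurement divided by that of the vehicle-treated control group.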

The mark [1] stands for this setting: dose: 30.0 mg/kg/injection, schedule: Q01DX005 (ip), vehicle: saline with Tween-80.
Where [2] appears, read: dose: 50.0 mg/kg/injection, schedule: Q01DX005 (ip), vehicle: saline.
[3] abbreviates: dose: 60.0 mg/kg/injection, schedule: Q01DX005 (ip), vehicle: saline with Tween-80.
The mark [4] stands for this setting: dose: 120.0 mg/kg/injection, schedule: Q01DX005 (ip), vehicle: saline with Tween-80.
The mark [5] stands for this setting: dose: 12.5 mg/kg/injection, schedule: Q01DX009 (ip), vehicle: Klucel (hydroxypropylcellulose) (HPC).
[6] abbreviates: dose: 50.0 mg/kg/injection, schedule: Q01DX009 (ip), vehicle: Klucel (hydroxypropylcellulose) (HPC).
[7] abbreviates: dose: 60.0 mg/kg/injection, schedule: Q01DX005 (ip), vehicle: Klucel (hydroxypropylcellulose) (HPC).
The mark [8] stands for this setting: dose: 120.0 mg/kg/injection, schedule: Q01DX005 (ip), vehicle: Klucel (hydroxypropylcellulose) (HPC).
The mark [9] stands for this setting: dose: 6.25 mg/kg/injection, schedule: Q01DX005 (ip), vehicle: Klucel (hydroxypropylcellulose) (HPC).
Setting [10] is: dose: 12.5 mg/kg/injection, schedule: Q01DX005 (ip), vehicle: Klucel (hydroxypropylcellulose) (HPC).
The mark [11] stands for this setting: dose: 25.0 mg/kg/injection, schedule: Q01DX005 (ip), vehicle: Klucel (hydroxypropylcellulose) (HPC).
[12] abbreviates: dose: 100.0 mg/kg/injection, schedule: Q01DX009 (ip), vehicle: Klucel (hydroxypropylcellulose) (HPC).
[13] abbreviates: dose: 200.0 mg/kg/injection, schedule: Q01DX009 (ip), vehicle: Klucel (hydroxypropylcellulose) (HPC).

For `CCC(=O)C(C)C1(C(=O)OC)NC(=S)NC(=O)C1C#N` (stereo unspecified), the T/C was 102 % of control (dose: 7.5 mg/kg/injection, schedule: Q01DX005 (ip), vehicle: saline with Tween-80); 99 % of control (dose: 15.0 mg/kg/injection, schedule: Q01DX005 (ip), vehicle: saline with Tween-80); 103 % of control under setting [1].

As for `CCOP(=O)(/C=C1/C(=O)OCC1(C)C)OCC`, the T/C is 100 % of control (dose: 100.0 mg/kg/injection, schedule: Q04DX003 (ip), vehicle: saline); 101 % of control (dose: 200.0 mg/kg/injection, schedule: Q04DX003 (ip), vehicle: saline); 104 % of control (dose: 400.0 mg/kg/injection, schedule: Q04DX003 (ip), vehicle: saline).

As for `C=C(C)CCN1C(=O)NC(C)(C)C1O` (stereo unspecified), the T/C under setting [2] was 100 % of control; the T/C (dose: 100.0 mg/kg/injection, schedule: Q01DX005 (ip), vehicle: saline) is 107 % of control; the T/C (dose: 200.0 mg/kg/injection, schedule: Q01DX005 (ip), vehicle: saline) was 101 % of control.

For `NS(=O)(=O)c1c[n+]([O-])ccc1Cl`, the T/C is, setting by setting: (dose: 50.0 mg/kg/injection, schedule: Q01DX009 (ip), vehicle: saline with Tween-80) 100 % of control; (dose: 100.0 mg/kg/injection, schedule: Q01DX009 (ip), vehicle: saline with Tween-80) 100 % of control; (dose: 200.0 mg/kg/injection, schedule: Q01DX009 (ip), vehicle: saline with Tween-80) 100 % of control.

Consider `CC(=O)OC1C(=O)C=C(C)OC1=O` (stereo unspecified), for which the T/C was 102 % of control under setting [3]; 99 % of control under setting [4]; 106 % of control (dose: 240.0 mg/kg/injection, schedule: Q01DX005 (ip), vehicle: saline with Tween-80).

For the compound `CCCCCCCCCCCCCCS[As](C)C`, the T/C reads like this: (dose: 25.0 mg/kg/injection, schedule: Q04DX002 (ip), vehicle: Klucel (hydroxypropylcellulose) (HPC)) 101 % of control; (dose: 50.0 mg/kg/injection, schedule: Q04DX002 (ip), vehicle: Klucel (hydroxypropylcellulose) (HPC)) 94 % of control; (dose: 100.0 mg/kg/injection, schedule: Q04DX002 (ip), vehicle: Klucel (hydroxypropylcellulose) (HPC)) 90 % of control and 92 % of control; (dose: 400.0 mg/kg/injection, schedule: Q04DX002 (ip), vehicle: Klucel (hydroxypropylcellulose) (HPC)) 91 % of control.

`CN1P(=N)(N)N=P(c2ccccc2)(c2ccccc2)N=P1(c1ccccc1)c1ccccc1` (stereo unspecified): the T/C runs as follows: under setting [5], 99 % of control and 113 % of control and 121 % of control; (dose: 25.0 mg/kg/injection, schedule: Q01DX009 (ip), vehicle: Klucel (hydroxypropylcellulose) (HPC)) 108 % of control and 115 % of control and 93 % of control; under setting [6], 123 % of control and 88 % of control.

On to `CC1Cc2c([nH]c(=O)n(-c3ccccc3)c2=S)O1` (stereo unspecified), for which the T/C runs as follows: (dose: 25.0 mg/kg/injection, schedule: Q01DX001 (ip), vehicle: Klucel (hydroxypropylcellulose) (HPC)) 96 % of control; (dose: 50.0 mg/kg/injection, schedule: Q01DX001 (ip), vehicle: Klucel (hydroxypropylcellulose) (HPC)) 112 % of control; (dose: 100.0 mg/kg/injection, schedule: Q01DX001 (ip), vehicle: Klucel (hydroxypropylcellulose) (HPC)) 100 % of control.

Regarding `CCSCCNC(=O)[C@@]1(O)[C@H](O)[C@]2(CC)C=CCN3CC[C@@]4(c5cc([C@@]6(OC(C)=O)C[C@H]7C=C(CC)CN(CCc8c6[nH]c6ccccc86)C7)c(OC)cc5N(C)[C@@H]14)[C@@H]32`, the T/C (dose: 0.5 mg/kg/injection, schedule: Q01DX001 (ip), vehicle: water) is 118 % of control; the T/C (dose: 1.0 mg/kg/injection, schedule: Q01DX001 (ip), vehicle: water) is 118 % of control; the T/C (dose: 4.0 mg/kg/injection, schedule: Q01DX001 (ip), vehicle: water) was 165 % of control; the T/C (dose: 8.0 mg/kg/injection, schedule: Q01DX001 (ip), vehicle: water) is 174 % of control.

For the compound `CCOc1cc(CC[N+](C)(C)C)cc2c1ccc1ccc(OC)c(OC)c12`, the T/C (dose: 6.25 mg/kg/injection, schedule: Q01DX005 (ip), vehicle: saline with Tween-80) was 99 % of control; the T/C (dose: 12.5 mg/kg/injection, schedule: Q01DX005 (ip), vehicle: saline with Tween-80) is 100 % of control; the T/C (dose: 25.0 mg/kg/injection, schedule: Q01DX005 (ip), vehicle: saline with Tween-80) is 96 % of control.

Take `O=S(=O)(OC1=CC2c3ccccc3C1c1ccccc12)C(F)(F)F`: the T/C (dose: 50.0 mg/kg/injection, schedule: Q01DX005 (ip), vehicle: saline + Tween-80 + alcohol) is 100 % of control; the T/C (dose: 100.0 mg/kg/injection, schedule: Q01DX005 (ip), vehicle: saline + Tween-80 + alcohol) is 100 % of control; the T/C (dose: 200.0 mg/kg/injection, schedule: Q01DX005 (ip), vehicle: saline + Tween-80 + alcohol) was 103 % of control.

Consider `CC([NH-])C(=O)O.CC([NH-])C(=O)O.[Cu+2]` (stereo unspecified), for which the T/C under setting [5] is 99 % of control.

For the compound `CCOC(=O)CC1NCCc2c1[nH]c1ccccc21` (stereo unspecified), the T/C (dose: 6.25 mg/kg/injection, schedule: Q01DX001 (ip), vehicle: saline sonified) is 90 % of control; the T/C (dose: 12.5 mg/kg/injection, schedule: Q01DX001 (ip), vehicle: saline sonified) is 90 % of control; the T/C (dose: 25.0 mg/kg/injection, schedule: Q01DX001 (ip), vehicle: saline sonified) was 100 % of control.

`O=c1[nH]cccc1[N+](=O)[O-]`: the T/C was 100 % of control (dose: 100.0 mg/kg/injection, schedule: Q04DX003 (ip), vehicle: saline with Tween-80); 100 % of control (dose: 200.0 mg/kg/injection, schedule: Q04DX003 (ip), vehicle: saline with Tween-80); 109 % of control (dose: 400.0 mg/kg/injection, schedule: Q04DX003 (ip), vehicle: saline with Tween-80); 90 % of control and 93 % of control (dose: 600.0 mg/kg/injection, schedule: Q01DX009 (ip), vehicle: saline).

For the compound `O=[N+]([O-])c1ccc(N2N=NC(CN3CCOCC3)C2N2CCOCC2)cc1` (stereo unspecified), the T/C is 111 % of control under setting [7]; 117 % of control under setting [8]; 118 % of control (dose: 240.0 mg/kg/injection, schedule: Q01DX005 (ip), vehicle: Klucel (hydroxypropylcellulose) (HPC)).

As to `CCCCc1ccc(N2C(N)=NC(N)=NC2(C)C)cc1`, the T/C (dose: 3.12 mg/kg/injection, schedule: Q01DX005 (ip), vehicle: Klucel (hydroxypropylcellulose) (HPC)) was 108 % of control and 106 % of control and 111 % of control; the T/C under setting [9] is 110 % of control [middle of 4 runs]; the T/C under setting [10] was 114 % of control [middle of 4 runs]; the T/C under setting [11] is 120 % of control and 109 % of control.

Regarding `CCN(CC)CCCC(C)n1c2nc(=O)[nH]c(=O)c-2nc2cc(Cl)ccc21` (stereo unspecified), the T/C runs as follows: (dose: 12.5 mg/kg/injection, schedule: Q01DX005 (ip), vehicle: saline) 98 % of control; (dose: 25.0 mg/kg/injection, schedule: Q01DX005 (ip), vehicle: saline) 104 % of control; under setting [2], 117 % of control and 119 % of control.

On to `COc1cc(CC2NCCc3cc(O)ccc32)cc(OC)c1OC` (stereo unspecified), for which the T/C reads like this: under setting [6], 103 % of control; under setting [12], 99 % of control; under setting [13], 102 % of control.

On to `Nc1ccc2nc[nH]c(=O)c2c1`, for which the T/C runs as follows: (dose: 3.0 mg/kg/injection, schedule: Q01DX005 (ip), vehicle: Klucel (hydroxypropylcellulose) (HPC)) 96 % of control; under setting [9], 95 % of control; (dose: 12.0 mg/kg/injection, schedule: Q01DX005 (ip), vehicle: Klucel (hydroxypropylcellulose) (HPC)) 101 % of control; under setting [10], 100 % of control; under setting [11], 111 % of control.

Consider `NC(CCC(=O)NC(CSC(c1ccccc1)(c1ccccc1)c1ccccc1)C(=O)NCC(=O)O)C(=O)O` (stereo unspecified), for which the T/C is 101 % of control and 115 % of control under setting [7]; 101 % of control and 113 % of control under setting [8].

Consider `Nc1nc2nc(/N=N/SCCC(=O)O)[nH]c2c(=O)[nH]1`, for which the T/C was 105 % of control (dose: 50.0 mg/kg/injection, schedule: Q01DX005 (ip), vehicle: saline with Tween-80) and 108 % of control (dose: 100.0 mg/kg/injection, schedule: Q01DX005 (ip), vehicle: saline with Tween-80).

Regarding `O=C(Cc1ccccc1)c1ccc(F)cc1`, the T/C is 98 % of control under setting [6], 100 % of control under setting [12] and 99 % of control under setting [13].

In the case of `N=C(N)c1ccc(OCCCCOc2ccc(N)cc2Cl)cc1`, the T/C was 102 % of control under setting [1]; 106 % of control and 97 % of control under setting [3]; 105 % of control under setting [4].
